Active and inactive are the calls of the source. No cut-off for these calls is given here.
Columns and labels:
Escherichia coli [1] = test: Antibacterial activity against Escherichia coli ATCC 35218 at 40 uM/ml after 24 hrs by kirby-bauer method; assay type: functional
Pseudomonas aeruginosa [2] = test: Antibacterial activity against Pseudomonas aeruginosa ATCC 15499 at 20 uM/ml after 24 hrs by kirby-bauer method; assay type: functional
Curvularia lunata [3] = test: Antifungal activity against Curvularia lunata MTCC 581 at 20 uM/ml after 48 hrs by paper disc diffusion method; assay type: functional; conditions: for zone of inhibition at 20 µM: MTCC 581, 48 h, read-out: IZ
Pseudomonas aeruginosa [4] = test: Antibacterial activity against Pseudomonas aeruginosa ATCC 15499 at 40 uM/ml after 24 hrs by kirby-bauer method; assay type: functional
Trichoderma viride [5] = test: Antifungal activity against Trichoderma viride MTCC 1107 at 160 uM/ml after 48 hrs by paper disc diffusion method; assay type: functional; conditions: MTCC 1107, 48 h, read-out: IZ
Trichoderma viride [6] = test: Antifungal activity against Trichoderma viride MTCC 1107 at 20 uM/ml after 48 hrs by paper disc diffusion method; assay type: functional
[7] = system: Burkholderia pseudomallei; test: Antibacterial activity against Burkholderia pseudomallei NTCC 10274 at 20 uM/ml after 24 hrs by kirby-bauer method; assay type: functional
Staphylococcus aureus [8] = test: Antibacterial activity against Staphylococcus aureus ATCC 11632 at 160 uM/ml after 24 hrs by kirby-bauer method; assay type: functional
QG-56 = test: Cytotoxicity against human QG56 cells after 48 hrs by MTT assay; assay type: functional, cell-based
[9] = system: Burkholderia pseudomallei; test: Antibacterial activity against Burkholderia pseudomallei NTCC 10274 at 40 uM/ml after 24 hrs by kirby-bauer method; assay type: functional
Curvularia lunata [10] = test: Antifungal activity against Curvularia lunata MTCC 581 at 80 uM/ml after 48 hrs by paper disc diffusion method; assay type: functional; conditions: MTCC 581, 48 h, read-out: IZ
[11] = system: Burkholderia pseudomallei; test: Antibacterial activity against Burkholderia pseudomallei NTCC 10274 at 80 uM/ml after 24 hrs by kirby-bauer method; assay type: functional; conditions: NTCC 10274, 24 h, read-out: IZ
Curvularia lunata [12] = test: Antifungal activity against Curvularia lunata MTCC 581 at 160 uM/ml after 48 hrs by paper disc diffusion method; assay type: functional; conditions: MTCC 581, 48 h, read-out: IZ
Escherichia coli [13] = test: Antibacterial activity against Escherichia coli ATCC 35218 at 20 uM/ml after 24 hrs by kirby-bauer method; assay type: functional
Escherichia coli [14] = test: Antibacterial activity against Escherichia coli ATCC 35218 at 160 uM/ml after 24 hrs by kirby-bauer method; assay type: functional; conditions: ATCC 35218, 24 h, read-out: IZ
Trichoderma viride [15] = test: Antifungal activity against Trichoderma viride MTCC 1107 at 40 uM/ml after 48 hrs by paper disc diffusion method; assay type: functional; conditions: for zone of inhibition: MTCC 1107, 48 h, read-out: IZ
Aspergillus niger [16] = test: Antifungal activity against Aspergillus niger MTCC 1108 after 48 hrs by poison food method; assay type: functional
Salmonella typhimurium [17] = test: Antibacterial activity against Salmonella typhimurium ATCC 23564 at 40 uM/ml after 24 hrs by kirby-bauer method; assay type: functional, Salmonella enterica subsp. enterica serovar Typhimurium; conditions: Salmonella enterica, ATCC 23564, 24 h; read-out: IZ
[18] = system: Burkholderia pseudomallei; test: Antibacterial activity against Burkholderia pseudomallei NTCC 10274 at 160 uM/ml after 24 hrs by kirby-bauer method; assay type: functional; conditions: NTCC 10274, 24 h, read-out: IZ
Aspergillus flavus [19] = test: Antifungal activity against Aspergillus flavus MTCC 1021 at 160 uM/ml after 48 hrs by paper disc diffusion method; assay type: functional
Aspergillus niger [20] = test: Antifungal activity against Aspergillus niger MTCC 1108 at 160 uM/ml after 48 hrs by paper disc diffusion method; assay type: functional
Escherichia coli [21] = test: Antibacterial activity against Escherichia coli ATCC 35218 at 80 uM/ml after 24 hrs by kirby-bauer method; assay type: functional; conditions: ATCC 35218, 24 h, read-out: IZ
Pseudomonas aeruginosa [22] = test: Antibacterial activity against Pseudomonas aeruginosa ATCC 15499 at 160 uM/ml after 24 hrs by kirby-bauer method; assay type: functional; conditions: ATCC 15499, 24 h, read-out: IZ
Trichoderma viride [23] = test: Antifungal activity against Trichoderma viride MTCC 1107 at 80 uM/ml after 48 hrs by paper disc diffusion method; assay type: functional; conditions: for zone of inhibition at 80 µM: MTCC 1107, 48 h, read-out: IZ
Aspergillus flavus [24] = test: Antifungal activity against Aspergillus flavus MTCC 1021 after 48 hrs by poison food method MTCC 1021; assay type: functional
Salmonella typhimurium [25] = test: Antibacterial activity against Salmonella typhimurium ATCC 23564 at 20 uM/ml after 24 hrs by kirby-bauer method; assay type: functional; conditions: Salmonella enterica subsp. enterica serovar Typhimurium
Salmonella typhimurium [26] = test: Antibacterial activity against Salmonella typhimurium ATCC 23564 at 80 uM/ml after 24 hrs by kirby-bauer method; assay type: functional, Salmonella enterica subsp. enterica serovar Typhimurium; conditions: Salmonella enterica, ATCC 23564, 24 h; read-out: IZ
Salmonella typhimurium [27] = test: Antibacterial activity against Salmonella typhimurium ATCC 23564 at 160 uM/ml after 24 hrs by kirby-bauer method; assay type: functional, Salmonella enterica subsp. enterica serovar Typhimurium; conditions: Salmonella enterica, ATCC 23564, 24 h; read-out: IZ
Pseudomonas aeruginosa [28] = test: Antibacterial activity against Pseudomonas aeruginosa ATCC 15499 at 80 uM/ml after 24 hrs by kirby-bauer method; assay type: functional; conditions: ATCC 15499, 24 h, read-out: IZ
Curvularia lunata [29] = test: Antifungal activity against Curvularia lunata MTCC 581 at 40 uM/ml after 48 hrs by paper disc diffusion method; assay type: functional; conditions: for zone of inhibition at 40 µM: MTCC 581, 48 h, read-out: IZ
Aspergillus flavus [30] = test: Antifungal activity against Aspergillus flavus MTCC 1021 at 80 uM/ml after 48 hrs by paper disc diffusion method; assay type: functional
Staphylococcus aureus [31] = test: Antibacterial activity against Staphylococcus aureus ATCC 11632 at 80 uM/ml after 24 hrs by kirby-bauer method; assay type: functional; conditions: ATCC 11632, 24 h, read-out: IZ
Aspergillus flavus [32] = test: Antifungal activity against Aspergillus flavus MTCC 1021 at 20 uM/ml after 48 hrs by paper disc diffusion method; assay type: functional
Aspergillus niger [33] = test: Antifungal activity against Aspergillus niger MTCC 1108 at 80 uM/ml after 48 hrs by paper disc diffusion method; assay type: functional; conditions: MTCC 1108, 48 h, read-out: IZ
Staphylococcus aureus [34] = test: Antibacterial activity against Staphylococcus aureus ATCC 11632 at 40 uM/ml after 24 hrs by kirby-bauer method; assay type: functional
Aspergillus niger [35] = test: Antifungal activity against Aspergillus niger MTCC 1108 at 20 uM/ml after 48 hrs by paper disc diffusion method; assay type: functional; conditions: MTCC 1108, 48 h, read-out: IZ
Aspergillus flavus [36] = test: Antifungal activity against Aspergillus flavus MTCC 1021 at 40 uM/ml after 48 hrs by paper disc diffusion method; assay type: functional
Staphylococcus aureus [37] = test: Antibacterial activity against Staphylococcus aureus ATCC 11632 at 20 uM/ml after 24 hrs by kirby-bauer method; assay type: functional
Aspergillus niger [38] = test: Antifungal activity against Aspergillus niger MTCC 1108 at 40 uM/ml after 48 hrs by paper disc diffusion method; assay type: functional; conditions: MTCC 1108, 48 h, read-out: IZ

COc1cc(/C=C/C(=O)CC(=O)/C=C/c2ccc(O)c(OC)c2)ccc1O [CURCUMIN]
inhibition zone (IZ) (Escherichia coli [1]): inactive | inhibition zone (IZ) (Pseudomonas aeruginosa [2]): inactive | inhibition zone (IZ) (Curvularia lunata [3]): inactive | inhibition zone (IZ) (Pseudomonas aeruginosa [4]): inactive | zone of inhibition at 160 µM (Trichoderma viride [5]): 9 mm | inhibition zone (IZ) (Trichoderma viride [6]): inactive | inhibition zone (IZ) [7]: inactive | inhibition zone (IZ) (Staphylococcus aureus [8]): inactive | IC50 (QG-56): 100 uM/ml | inhibition zone (IZ) [9]: inactive | zone of inhibition at 80 µM (Curvularia lunata [10]): 9 mm | zone of inhibition at 80 µM [11]: 8 mm | zone of inhibition at 160 µM (Curvularia lunata [12]): 11 mm | inhibition zone (IZ) (Escherichia coli [13]): inactive | zone of inhibition at 160 µM (Escherichia coli [14]): 10 mm | inhibition zone (IZ) (Trichoderma viride [15]): inactive | MIC (Aspergillus niger [16]): inactive | IC50 (HepG2): 50 uM/ml | zone of inhibition at 40 µM (Salmonella typhimurium [17]): 9 mm | zone of inhibition at 160 µM [18]: 9 mm | inhibition zone (IZ) (Aspergillus flavus [19]): inactive | inhibition zone (IZ) (Aspergillus niger [20]): inactive | IC50 (HCT-116): 50 uM/ml | zone of inhibition at 80 µM (Escherichia coli [21]): 8 mm | zone of inhibition at 160 µM (Pseudomonas aeruginosa [22]): 11 mm | inhibition zone (IZ) (Trichoderma viride [23]): inactive | MIC (Aspergillus flavus [24]): inactive | inhibition zone (IZ) (Salmonella typhimurium [25]): inactive | zone of inhibition at 80 µM (Salmonella typhimurium [26]): 10 mm | zone of inhibition at 160 µM (Salmonella typhimurium [27]): 12 mm | zone of inhibition at 80 µM (Pseudomonas aeruginosa [28]): 9 mm | inhibition zone (IZ) (Curvularia lunata [29]): inactive

COc1cc(/C=C/C(=O)C2=C(/C=C/c3ccc(O)c(OC)c3)NC(=S)NC2c2ccc(O)c(OC)c2)ccc1O (configuration not stated)
zone of inhibition at 40 µM (Escherichia coli [1]; ATCC 35218, 24 h, read-out: IZ): 9 mm | inhibition zone (IZ) (Pseudomonas aeruginosa [2]): inactive | zone of inhibition at 20 µM (Curvularia lunata [3]): 19 mm | inhibition zone (IZ) (Aspergillus flavus [30]): inactive | zone of inhibition at 40 µM (Pseudomonas aeruginosa [4]; ATCC 15499, 24 h, read-out: IZ): 9 mm | zone of inhibition at 160 µM (Trichoderma viride [5]): 13 mm | inhibition zone (IZ) (Trichoderma viride [6]): inactive | zone of inhibition at 80 µM (Staphylococcus aureus [31]): 9 mm | zone of inhibition at 20 µM ([7]; NTCC 10274, 24 h, read-out: IZ): 13 mm | zone of inhibition at 160 µM (Staphylococcus aureus [8]; ATCC 11632, 24 h, read-out: IZ): 11 mm | IC50 (QG-56): 100 uM/ml | inhibition zone (IZ) (Aspergillus flavus [32]): inactive | zone of inhibition at 40 µM ([9]; NTCC 10274, 24 h, read-out: IZ): 16 mm | zone of inhibition at 80 µM (Curvularia lunata [10]): 22 mm | zone of inhibition at 80 µM [11]: 18 mm | zone of inhibition at 160 µM (Curvularia lunata [12]): 24 mm | inhibition zone (IZ) (Escherichia coli [13]): inactive | zone of inhibition at 160 µM (Escherichia coli [14]): 14 mm | zone of inhibition (Trichoderma viride [15]): 9 mm | IC50 (HepG2): 50 uM/ml | zone of inhibition at 40 µM (Salmonella typhimurium [17]): 9 mm | zone of inhibition at 160 µM [18]: 21 mm | zone of inhibition at 160 µM (Aspergillus flavus [19]; MTCC 1021, 48 h, read-out: IZ): 11 mm | zone of inhibition at 160 µM (Aspergillus niger [20]; MTCC 1108, 48 h, read-out: IZ): 16 mm | IC50 (HCT-116): 100 uM/ml | zone of inhibition at 80 µM (Aspergillus niger [33]): 12 mm | zone of inhibition at 80 µM (Escherichia coli [21]): 11 mm | zone of inhibition at 160 µM (Pseudomonas aeruginosa [22]): 14 mm | zone of inhibition at 80 µM (Trichoderma viride [23]): 11 mm | inhibition zone (IZ) (Staphylococcus aureus [34]): inactive | inhibition zone (IZ) (Salmonella typhimurium [25]): inactive | zone of inhibition at 80 µM (Salmonella typhimurium [26]): 12 mm | zone of inhibition at 20 µM (Aspergillus niger [35]): 9 mm | zone of inhibition at 160 µM (Salmonella typhimurium [27]): 14 mm | inhibition zone (IZ) (Aspergillus flavus [36]): inactive | inhibition zone (IZ) (Staphylococcus aureus [37]): inactive | zone of inhibition at 80 µM (Pseudomonas aeruginosa [28]): 11 mm | zone of inhibition at 40 µM (Aspergillus niger [38]): 11 mm | zone of inhibition at 40 µM (Curvularia lunata [29]): 21 mm

OC(Cn1cncn1)(Cn1cncn1)c1ccc(F)cc1F [FLUCONAZOLE]
zone of inhibition at 20 µM (Curvularia lunata [3]): 24 mm | zone of inhibition at 160 µM (Trichoderma viride [5]): 32 mm | zone of inhibition at 20 µM (Trichoderma viride [6]; MTCC 1107, 48 h, read-out: IZ): 21 mm | zone of inhibition at 80 µM (Curvularia lunata [10]): 28 mm | zone of inhibition at 160 µM (Curvularia lunata [12]): 31 mm | zone of inhibition (Trichoderma viride [15]): 24 mm | MIC (Aspergillus niger [16]): inactive | inhibition zone (IZ) (Aspergillus flavus [19]): inactive | inhibition zone (IZ) (Aspergillus niger [20]): inactive | zone of inhibition at 80 µM (Trichoderma viride [23]): 29 mm | zone of inhibition at 40 µM (Curvularia lunata [29]): 27 mm
